Where “and” joins values, the source holds several entries; their conditions need not be identical. Equal entries are not always repeated. Starred links: 1 amine or outer side, 2 acyl side, 3 side chain; linkers in the order of their positions; H or OH if unused. Non-standard residues stand in square brackets, D forms with d. Residues, ends and D or L forms follow the SMILES beside them. Groups on a side chain read outwards from the residue. *: point of attachment. C20 diacid = O=C(O)CCCCCCCCCCCCCCCCCCC(=O)*; C18 diacid = O=C(O)CCCCCCCCCCCCCCCCC(=O)*; γGlu = O=C(O)[C@H](CCC(=O)[*:2])N[*:1]; NMeI = CC[C@H](C)[C@H](NC)C(=O)O; AEEA = NCCOCCOCC(=O)O
Key:
[1] = Pharmacokinetics, single subcutaneous dose, mice; settings: sc
Experimental: (§1) Plasma concentrations of compounds were determined by LC/MS methods. Each method measured the intact compound; peptide plus linked time extension. For each assay, the compound and an analog, used as an internal standard (IS), were extracted from 100% mouse, rat or monkey plasma (25 μl) using acetonitrile. Two distinct layers were formed upon centrifugation with the compound and the IS located in the supernatant layer. An aliquot of the supernatant (80 μl) was transferred to a Thermo Protein Precipitation Plate with water (150 μl) and formic acid (25 μl) followed by mixing. A final 31% acetonitrile in 10% formic acid sample (10 μl) was loaded onto a Supelco Analytical Discovery BIO Wide Pore C5-3 column (5 cm×1 mm, 3 μm). The column effluent was directed into a Thermo Q-Exactive mass spectrometer for detection and quantitation.
Male CD-1 mice were administered a single subcutaneous dose (350, 386 or 388 nmol/kg) of a compound described herein in 20 mM Tris-HCl Tris Buffer (pH 7 or 8) at a volume of 0.05 or 0.06 mL/animal. Blood was collected at 6, 12, 24, 48, 72, 96, 120 and 168 hours postdose for pharmacokinetic characterization (101).

human CRHR2b = target: T1, human CRHR2b (Homo sapiens, UniProt Q13324); assay: human CRHR2b cell-based cAMP assay; settings: cAMP assay, CHO cells transfected with human CRHR2b; mean ± SEM of runs; read-out: hCRHR2b Average EC50
T1 construct: expressed in transfected cells; host or cells: Chinese Hamster Ovary (CHO) cells, transient transfection
T1 sequence (Q13324 1-438 isoform Q13324-2): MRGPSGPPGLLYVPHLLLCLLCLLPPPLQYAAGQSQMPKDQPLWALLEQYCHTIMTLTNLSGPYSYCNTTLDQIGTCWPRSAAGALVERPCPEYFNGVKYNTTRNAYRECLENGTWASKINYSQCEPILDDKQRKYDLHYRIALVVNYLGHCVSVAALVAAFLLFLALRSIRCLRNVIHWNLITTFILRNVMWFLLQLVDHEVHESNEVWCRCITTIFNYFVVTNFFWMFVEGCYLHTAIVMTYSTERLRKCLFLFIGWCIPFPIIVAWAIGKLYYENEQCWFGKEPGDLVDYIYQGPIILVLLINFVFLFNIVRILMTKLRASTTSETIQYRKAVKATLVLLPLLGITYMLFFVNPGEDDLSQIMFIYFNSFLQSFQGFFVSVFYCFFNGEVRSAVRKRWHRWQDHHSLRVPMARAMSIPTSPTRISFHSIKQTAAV
How it was run: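 ED50 values are means ± SEM over several runs, curve-fitted from cAMP in pmol, calibrated against unlabeled-cAMP standards. Detection was HTRF competition, ratio 665/620 nm, after 30 min agonist exposure at 37 °C.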

[2] = Pharmacokinetics, single subcutaneous dose, monkeys; settings: for half-life: T1/2, male Cynomolgus monkeys
Experimental: as §1
Male Cynomolgus monkeys were administered a single subcutaneous dose or intravenous dose (96.4 nmol/kg) of a compound described herein in 20 mM Tris-HCl Buffer (pH 7) at a volume of 1 mL/kg. Blood was collected from each animal at 2, 6, 24, 48, 72, 96, 168, 240, 336, 408, and 504 hours postdose for pharmacokinetic characterization.
Male Cynomolgus monkeys were also administered a single subcutaneous dose (50 nmol/kg) of a compound described herein in 20 mM Tris-HCl Buffer (pH 8) at a volume of 0.26 mL/kg. Blood was collected from each animal at 3, 6, 12, 24, 48, 72, 96, 120, 168, 192, 240, 336, 408, and 504 hours postdose for pharmacokinetic characterization.

[3] = Pharmacokinetics, single subcutaneous dose, rats; settings: for half-life: T1/2, male Sprague Dawley rats
Experimental: as §1
Male Sprague Dawley rats were administered a single subcutaneous dose (50 or 150 nmol/kg) of a compound described herein in 20 mM Tris-HCl Tris Buffer (pH 8) at a volume of 0.26 or 0.77 mL/kg.

[4] = male, CD-1, mouse, plasma, 350 nmol/kg
[5] = male Cynomolgus monkeys, single 50 nmol/kg s.c., individual animal
[6] = male, cynomolgus monkey, plasma, sc, 50 nmol/kg
[7] = male, cynomolgus monkey, plasma, sc, 50 nmol/kg, Tmax, male Cynomolgus monkeys, single 50 nmol/kg s.c., Mean
[8] = male, cynomolgus monkey, plasma, sc, 50 nmol/kg, Tmax, male Cynomolgus monkeys, single 50 nmol/kg s.c., individual animal
[9] = male Sprague Dawley rats, single 50 nmol/kg s.c., individual animal
[10] = male Sprague Dawley rats, single 150 nmol/kg s.c., individual animal
[11] = male, Sprague Dawley, rat, plasma, sc, 50 nmol/kg
[12] = male, Sprague Dawley, rat, plasma, sc, 50 nmol/kg, male Sprague Dawley rats, single 50 nmol/kg s.c., Mean
[13] = male, Sprague Dawley, rat, plasma, sc, 50 nmol/kg, male Sprague Dawley rats, single 50 nmol/kg s.c., individual animal
[14] = male, Sprague Dawley, rat, plasma, sc, 150 nmol/kg
[15] = male, Sprague Dawley, rat, plasma, sc, 150 nmol/kg, male Sprague Dawley rats, single 150 nmol/kg s.c., Mean
[16] = male, Sprague Dawley, rat, plasma, sc, 150 nmol/kg, male Sprague Dawley rats, single 150 nmol/kg s.c., individual animal
[17] = male, CD-1, mouse, plasma, 386 nmol/kg
[18] = male Cynomolgus monkeys, single 96.4 nmol/kg s.c., individual animal
[19] = male, cynomolgus monkey, plasma, sc, 96.4 nmol/kg

SMILES	AUC(0-inf) [1, 4] [µM·h]	Cmax [1, 4] [µM]	Tmax [1, 4] [h]	EC50 (human CRHR2b) [nM]	AUC(0-inf) [2, 5]	Cmax [2, 5]	AUC(0-inf) [2, 6] [µM·h]	Cmax [2, 6] [µM]	Tmax [2, 7] [h]	Tmax [2, 8] [h]	Cmax [3, 9]	Cmax [3, 10]	AUC(0-inf) [3, 11] [µM·h]	Cmax [3, 11] [µM]	Tmax [3, 12] [h]	Tmax [3, 13] [h]	AUC(0-inf) [3, 14] [µM·h]	Cmax [3, 14] [µM]	Tmax [3, 15] [h]	Tmax [3, 16] [h]	other results
CC[C@H](C)[C@H](NC)C(=O)N[C@H](C(=O)N[C@@H](CC(C)C)C(=O)N[C@@H](CO)C(=O)N[C@@H](CC(C)C)C(=O)N[C@@H](CC(=O)O)C(=O)N[C@H](C(=O)N1CCC[C@H]1C(=O)N[C@H](C(=O)NCC(=O)N[C@@H](CC(C)C)C(=O)N[C@@H](CC(C)C)C(=O)N[C@@H](CCC(N)=O)C(=O)N[C@H](C(=O)N[C@@H](CC(C)C)C(=O)N[C@@H](CC(C)C)C(=O)N[C@@H](CCC(=O)O)C(=O)N[C@@H](CCC(N)=O)C(=O)N[C@@H](CCC(=O)O)C(=O)N[C@@H](CCCCN)C(=O)N[C@@H](CCC(N)=O)C(=O)N[C@@H](CCC(=O)O)C(=O)N[C@@H](CCCCN)C(=O)N[C@@H](CCC(=O)O)C(=O)N[C@@H](CCCCN)C(=O)N[C@@H](CCC(N)=O)C(=O)N[C@@H](CCC(N)=O)C(=O)N[C@@H](C)C(=O)N[C@@H](CCCCNC(=O)COCCOCCNC(=O)COCCOCCNC(=O)CC[C@H](NC(=O)CC[C@H](NC(=O)CCCCCCCCCCCCCCCCCCC(=O)O)C(=O)O)C(=O)O)C(=O)N[C@H](C(=O)N[C@@H](CC(N)=O)C(=O)N[C@@H](C)C(=O)N[C@@H](CCC(N)=O)C(=O)N[C@H](C(=O)N[C@@H](CC(C)C)C(=O)N[C@@H](C)C(=O)N[C@@H](CCC(N)=O)C(=O)N[C@H](C(N)=O)C(C)C)[C@@H](C)CC)[C@@H](C)O)[C@@H](C)CC)[C@@H](C)CC)C(C)C)C(C)C [Example 4] (H-[NMeI]VLSLDVPIGLLQILLEQEKQEKEKQQAK([AEEA-AEEA-γGlu-γGlu-C20 diacid])TNAQILAQV-NH2)	51.6	1.16	24	1.85 ± 0.51	51.829 µM·h and 46.654 µM·h	0.333 µM and 0.291 µM	49.2	0.312	36	48	0.126 µM and 0.15 µM and 0.127 µM	0.356 µM and 0.527 µM and 0.482 µM	7.51	0.134	24	24	25.1	0.455	24	24	
CC[C@H](C)[C@H](NC)C(=O)N[C@H](C(=O)N[C@@H](CC(C)C)C(=O)N[C@@H](CO)C(=O)N[C@@H](CC(C)C)C(=O)N[C@@H](CC(=O)O)C(=O)N[C@H](C(=O)N1CCC[C@H]1C(=O)N[C@H](C(=O)NCC(=O)N[C@@H](CC(C)C)C(=O)N[C@@H](CC(C)C)C(=O)N[C@@H](CCC(N)=O)C(=O)N[C@H](C(=O)N[C@@H](CC(C)C)C(=O)N[C@@H](CC(C)C)C(=O)N[C@@H](CCC(=O)O)C(=O)N[C@@H](CCC(N)=O)C(=O)N[C@@H](CCC(=O)O)C(=O)N[C@@H](CCCCN)C(=O)N[C@@H](CCC(N)=O)C(=O)N[C@@H](CCC(=O)O)C(=O)N[C@@H](CCCCN)C(=O)N[C@@H](CCC(=O)O)C(=O)N[C@@H](CCCCN)C(=O)N[C@@H](CCC(N)=O)C(=O)N[C@@H](CCC(N)=O)C(=O)N[C@@H](C)C(=O)N[C@@H](CCCCNC(=O)COCCOCCNC(=O)COCCOCCNC(=O)CC[C@H](NC(=O)CC[C@H](NC(=O)CCCCCCCCCCCCCCCCC(=O)O)C(=O)O)C(=O)O)C(=O)N[C@H](C(=O)N[C@@H](CC(N)=O)C(=O)N[C@@H](C)C(=O)N[C@@H](CCC(N)=O)C(=O)N[C@H](C(=O)N[C@@H](CC(C)C)C(=O)N[C@@H](C)C(=O)N[C@@H](CCC(N)=O)C(=O)N[C@H](C(N)=O)C(C)C)[C@@H](C)CC)[C@@H](C)O)[C@@H](C)CC)[C@@H](C)CC)C(C)C)C(C)C [Example 3] (H-[NMeI]VLSLDVPIGLLQILLEQEKQEKEKQQAK([AEEA-AEEA-γGlu-γGlu-C18 diacid])TNAQILAQV-NH2)	35.5	1.34	12	2 ± 1.11	69.88 µM·h and 58.414 µM·h	0.441 µM and 0.432 µM	64.1	0.437	36	48	0.188 µM and 0.16 µM and 0.141 µM	0.531 µM and 0.496 µM and 0.47 µM	7.17	0.163	20	12	24.4	0.499	24	24	CL/F [1, 4]: 0.165 mL/min/kg; half-life [1, 4]: 14 h; CL/F [2, 5]: 0.0143 mL/min/kg; T1/2 [2, 5]: 70 h; CL/F ([2]; male, cynomolgus monkey, plasma, sc, 50 nmol/kg, CL/F, male Cynomolgus monkeys, single 50 nmol/kg s.c., Mean): 0.0132 mL/min/kg; CL/F ([2]; male, cynomolgus monkey, plasma, sc, 50 nmol/kg, CL/F, male Cynomolgus monkeys, single 50 nmol/kg s.c., individual animal): 0.012 mL/min/kg; half-life ([2]; male, cynomolgus monkey, plasma, sc, 50 nmol/kg, single 50 nmol/kg s.c., Mean): 85 h; half-life ([2]; male, cynomolgus monkey, plasma, sc, 50 nmol/kg, single 50 nmol/kg s.c., individual animal): 101 h; CL/F [3, 9]: 0.125 mL/min/kg and 0.122 mL/min/kg; T1/2 [3, 9]: 14 h and 17 h; CL/F [3, 10]: 0.103 mL/min/kg and 0.107 mL/min/kg; CL/F ([3]; male, Sprague Dawley, rat, plasma, sc, 50 nmol/kg, CL/F, male Sprague Dawley rats, single 50 nmol/kg s.c., Mean): 0.117 mL/min/kg; CL/F ([3]; male, Sprague Dawley, rat, plasma, sc, 50 nmol/kg, CL/F, male Sprague Dawley rats, single 50 nmol/kg s.c., individual animal): 0.103 mL/min/kg; half-life ([3]; male, Sprague Dawley, rat, plasma, sc, 50 nmol/kg, single 50 nmol/kg s.c., Mean): 16 h; half-life ([3]; male, Sprague Dawley, rat, plasma, sc, 50 nmol/kg, single 50 nmol/kg s.c., individual animal): 16 h; CL/F ([3]; male, Sprague Dawley, rat, plasma, sc, 150 nmol/kg, CL/F, male Sprague Dawley rats, single 150 nmol/kg s.c., Mean): 0.1 mL/min/kg; CL/F ([3]; male, Sprague Dawley, rat, plasma, sc, 150 nmol/kg, CL/F, male Sprague Dawley rats, single 150 nmol/kg s.c., individual animal): 0.1 mL/min/kg; half-life ([3]; male, Sprague Dawley, rat, plasma, sc, 150 nmol/kg, single 150 nmol/kg s.c., Mean): 16 h; half-life ([3]; male, Sprague Dawley, rat, plasma, sc, 150 nmol/kg, single 150 nmol/kg s.c., individual animal): 16 h
CC[C@H](C)[C@H](NC(C)=O)C(=O)N[C@H](C(=O)N[C@@H](CC(C)C)C(=O)N[C@@H](CO)C(=O)N[C@@H](CC(C)C)C(=O)N[C@@H](CC(=O)O)C(=O)N[C@H](C(=O)N1CCC[C@H]1C(=O)N[C@H](C(=O)NCC(=O)N[C@@H](CC(C)C)C(=O)N[C@@H](CC(C)C)C(=O)N[C@@H](CCC(N)=O)C(=O)N[C@H](C(=O)N[C@@H](CC(C)C)C(=O)N[C@@H](CC(C)C)C(=O)N[C@@H](CCC(=O)O)C(=O)N[C@@H](CCC(N)=O)C(=O)N[C@@H](CCC(=O)O)C(=O)N[C@@H](CCCCN)C(=O)N[C@@H](CCC(N)=O)C(=O)N[C@@H](CCC(=O)O)C(=O)N[C@@H](CCCCN)C(=O)N[C@@H](CCC(=O)O)C(=O)N[C@@H](CCCCN)C(=O)N[C@@H](CCC(N)=O)C(=O)N[C@@H](CCC(N)=O)C(=O)N[C@@H](C)C(=O)N[C@@H](CCCCNC(=O)COCCOCCNC(=O)COCCOCCNC(=O)CC[C@H](NC(=O)CC[C@H](NC(=O)CCCCCCCCCCCCCCCCCCC(=O)O)C(=O)O)C(=O)O)C(=O)N[C@H](C(=O)N[C@@H](CC(N)=O)C(=O)N[C@@H](C)C(=O)N[C@@H](CCC(N)=O)C(=O)N[C@H](C(=O)N[C@@H](CC(C)C)C(=O)N[C@@H](C)C(=O)N[C@@H](CCC(N)=O)C(=O)N[C@H](C(N)=O)C(C)C)[C@@H](C)CC)[C@@H](C)O)[C@@H](C)CC)[C@@H](C)CC)C(C)C)C(C)C [Example 2] (Ac-IVLSLDVPIGLLQILLEQEKQEKEKQQAK([AEEA-AEEA-γGlu-γGlu-C20 diacid])TNAQILAQV-NH2)				1.2 ± 0.52													32.3	0.429			AUC(0-inf) [1, 17]: 46.5 µM·h; Cmax [1, 17]: 1.15 µM; Tmax ([1]; mouse, in vivo, 386 nmol/kg): 12 h; Tmax ([2]; cynomolgus monkey, in vivo, sc, 96.4 nmol/kg, Tmax, male Cynomolgus monkeys, single 96.4 nmol/kg s.c., Mean): 36 h; Tmax ([2]; cynomolgus monkey, in vivo, sc, 96.4 nmol/kg, Tmax, male Cynomolgus monkeys, single 96.4 nmol/kg s.c., individual animal): 24 h; AUC(0-inf) [2, 18]: 237.954 µM·h and 245.711 µM·h; Cmax [2, 18]: 1.238 µM and 1.699 µM; Tmax [2, 18]: 48 h; AUC(0-inf) [2, 19]: 242 µM·h; Cmax [2, 19]: 1.47 µM; Tmax ([3]; rat, in vivo, sc, 150 nmol/kg, male Sprague Dawley rats, single 150 nmol/kg s.c., Mean): 24 h; Tmax ([3]; rat, in vivo, sc, 150 nmol/kg, male Sprague Dawley rats, single 150 nmol/kg s.c., individual animal): 24 h

— patent US10894817B2, “Fatty acid modified urocortin-2 analogs for the treatment of diabetes and chronic kidney disease” (priority 2016, dated 2021)
